# Experimental data reported in US7498445B2, “Thiazole-based nitric oxide donors capable of releasing two or more nitric oxide molecules and uses thereof” (priority 2004, dated 2009).
# “Also recorded” adds a separate entry of the source.
# Experiments:
# isolated rat aorta = assay: In vitro induction of tolerance and cross-tolerance: vasorelaxation of pre-exposed rat aortic rings; assay type: cell-based; settings: rings pre-treated with epinephrine and then with the same compound (0.44 mM) versus control; in words
# Description: Aortic rings were prepared as described hereinabove, and were exposed to 0.44 mM GTN (vehicle was water:ethanol:propyleneglycol at proportional ratio of 1:1:1) for 1 hour before CCRC construction, to thereby induce tolerance to nitroglycerine. At the end of the tolerance induction period, rings were thrice washed with the path buffer (Krebs-bicrbonate) every 15 minutes for the following hour and then CCRC for vasorelaxation on GTN-induced tolerance rings were constructed for GTN (pretreated versus untreated rings, FIG. 15), in order to verify the ability to induce and measure GTN tolerance induction in vitro Attempted induction of tolerance to the NO-donating compounds of the present invention was performed under the same conditions as for GTN. Thus, in an exemplary experiment, rings were exposed to 0.44 mM solution of Pet-3 in the attempt to induce tolerance for Pet-3. CCRC were then measured for the vasorelaxing effect of Pet-3 on a group of rings which were pre-exposed to Pet-3 as to induce tolerance to Pet-3, and for an untreated control group. The above protocol was repeated with Pet-2, Pet-7, Pet-8, Pet-12, Pet-24, Pet-43, Pet-149 and Pet-152.
# Cross-tolerance studies were conducted using the same technique described above for measuring vasorelaxation of aortic rings from rats. Two groups of aortic rings samples were pre-treated with GTN, then one group was measured for vasorelaxation by GTN and the second group for vasorelaxation by Pet-12, an exemplary NO-donor according to the present invention. For the opposite cross-tolerance studies, two groups of aortic rings samples were pre-treated with Pet-12, then one group was measured for vasorelaxation by GTN and the second group for vasorelaxation by Pet-12.
# [1] = test system: c-GMP in slices of thoracic aorta of rats; assay: Cyclic-GMP measurement in aortic rat tissue (radioimmunoassay); assay type: cell-based; settings: thoracic aorta of rats; in words
# Description: GTN (10^−6 M) was added to the chamber and, 1 minute after exposure to the drug, rings (usually 3-5) were taken, wrapped with aluminum foil and immediately frozen in liquid nitrogen for storage. Control sample group was treated with the vehicle solution only. At the time of analysis, rings were thawed, blotted over a dry gauzed and weighted. A known weight of tissue was homogenized in 2 ml ice-cold modified Hank's balanced salt solution containing (in gram/liter) NaCl 8; KCl 0.4; glucose 1; KH2PO4 0.06; Na2HPO4 0.047; Phenol red 0.017 and further containing 25 mM EDTA (disodium salt). The homogenate was centrifuged at 4000 g (force units) for 10 minutes at 2-4° C. and the supernatant was thereafter transferred into fresh pre-cooled test tube containing 1 ml of acetonitrile. The tubes were vortex mixed for a few seconds and subsequently centrifuged at 4000 g for 5 minutes at 2-4° C., to remove the precipitated protein. Each supernatant was transferred into a clean test tube and evaporated to dryness under a stream of nitrogen at 55° C. The dry residue was reconstituted with 10 volumes of Tris-EDTA buffer pH 7.5 (0.05 M Tris containing 4 mM EDTA). Aliquots of 100 μl of the reconstituted solution in duplicate were used for c-GMP measurements using Amersham RIA kit, as is described in Haj-Yehia & Benet [Pharmacology, 1995, 273, 1, pp. 94-100]. Standard curves were plotted with six concentrations (0, 0.5, 1, 2, 4 and 8 pmoles of c-GMP per tube).
# The NO-tolerance effect of GTN and NO-donor compounds according to the present invention was measured by following the production of c-GMP in slices of thoracic aorta of rats. Thus, the production of c-GMP was measured as described in the methods section above for the reference NO-donor compound GTN, and for the NO-donors of the present invention Pet-2, Pet-3, Pet-7, Pet-8, Pet-10, Pet-12, Pet-24, Pet-59, Pet-147, Pet-149, Pet-152, Pet-154 and Pet-155.
# [2] = test system: anesthetized hypertensive Sprague-Dawley male rats; assay: Hypotensive effects: mean arterial pressure after iv bolus in phenylephrine-treated rats; assay type: in vivo, rat; settings: rats pre-treated with phenylephrine, in words
# Description: Mean arterial pressure (MAP) was monitored and determined during bolus infusion of Pet-2, Pet-3, Pet-7, Pet-8, Pet-12 and Pet-13. Briefly, polyethylene catheters (PE50) were inserted into the carotid artery and into the jugular vein of anesthetized hypertensive Sprague-Dawley male rats (200-300 grams). A blood pressure recorder was placed within the carotid artery. Phenylephrine (0.1 mg) was then injected and the mean arterial blood pressure (MABP) was monitored continuously until a stable baseline was reached. The hypotensive effects of intravenous (iv) bolus doses (0.1 mg of each tested compound) administered intravenously at the jugular vein in minimal volume of vehicle (0.2 ml per dose) were evaluated. Five minutes were allowed between each dose, during which the maximal decrease in MAP was recorded and a dose-response graph comparing the hypotensive effect of the compounds was constructed.
# [3] = test system: cyclic-GMP in isolated aorta of rats pre-treated in vivo; assay: Induction of in vivo nitrate tolerance: cGMP in aorta of rats infused for 16 hours; set-up: species or system rat; settings: rats infused 200 μg/hour for 16 hours, aorta then exposed to 1 μM; in words
# Description: For c-GMP levels and tolerance development, the rat's thoracic aorta was isolated after exposure to the tested compound in vivo, and measured as described above in the in vitro assays.
# Male Sprague Dawley rats (220 to 250 grams) were housed under constant temperature and humidity conditions. Light was maintained at a 12/12 light dark cycle. Except for 12 hours before the experiment, when food fasting was initiated, all rats had free access to standard rat pellet diet and tap water. The animals were anesthetized by intraperitoneal injection of ketamine and xylazine combination (50 and 10 milligram per kilogram, respectively). […] The catheters were filled with normal saline solution containing 1000 IU/ml of heparin and plugged with a metal pin. Catheters were externalized to the back of the neck region and secured by a polyester felt disk.
# After implantation, the rats were individually housed until they regained their preoperative weight and appeared healthy (3 to 4 days post-operation). At this time point (day 0), an osmotic mini-pump (Alza Corp., Palo Alto, Calif.) delivering constant volume (10 μl/hour) of vehicle or drug was connected to one of the intravenous catheters.
# For inducing tolerance to the tested NO-donor according to the present invention, the animals received 200 μg/hour of the tested compound for 16 hours (short-term-induced tolerance). […]
structure (smiles),measurement,setting,value
"O=[N+]([O-])OCC(CO[N+](=O)[O-])O[N+](=O)[O-] [GTN, glyceryl trinitrate, reference compound]",tolerance induction in vitro,isolated rat aorta,tolerance induced by treatment with GTN
same,c-GMP level following a repeated treatment,[1],significantly reduced
same,hypotensive effect on MAP following successive administrations,[2],attenuation in its effect on MAP
same,level of cGMP following a repeated treatment in vivo (tolerance induction),[3],tolerance inducing effect; also recorded: decreased
